Drawing on patent US6683211B1, “Phenyl-propargylether derivatives” (priority 2000, dated 2004), this text covers inhibition and melting point for 8 compounds.

Series [1] has as its system Plasmopara viticola. Description: D-1a) residual-protective action against Plasmopara viticola on vines. The format is in vivo. Particulars: Plasmopara viticola, 144 h; 200 ppm; test D-1a) residual-protective; vine seedlings; evaluated after 6 days; read-out: inhibit fungal infestations. As to the method: (§1) D-1: Action Against Plasmopara viticola on Vines
(§2) a) Residual-protective Action
Vine seedlings are sprayed at the 4- to 5-leaf stage with a spray mixture (0.02% active ingredient) prepared from a wettable powder formulation of the test compound. After 24 hours, the treated plants are infected with a sporangia suspension of the fungus. Fungus infestation is evaluated after incubation for 6 days at 95-100% relative humidity and +20° C.

Series [2] deals with Phytophthora. The experiment in a line: D-2a) residual-protective action against Phytophthora on tomato plants. The following applies: Phytophthora, 120 h; 200 ppm; test D-2a) residual-protective, evaluated after 5 days, read-out: inhibit fungal infestations. It counts as in vivo. As to the method: (§3) D-2: Action Against Phytophthora on Tomato Plants
as §2
After a cultivation period of 3 weeks, tomato plants are sprayed with a spray mixture (0.02% active ingredient) prepared from a wettable powder formulation of the test compound. After 48 hours, the treated plants are infected with a sporangia suspension of the fungus. Fungus infestation is evaluated after incubation of the infected plants for 5 days at 90-100% relative humidity and +20° C.

Series [3] has as its system Phytophthora. Description: D-3b) systemic action against Phytophthora on potato plants. It counts as in vivo. Particulars: Phytophthora, 96 h; 200 ppm; test D-3b) systemic (soil watering); potato plants (Bintje); evaluated after 4 days; read-out: inhibit fungal infestations. The protocol:
(§4) D-3: Action Against Phytophthora on Potato Plants
2-3 week old potato plants (Bintje variety) are watered with a spray mixture (0.02% active ingredient based on the volume of the soil) prepared from a wettable powder formulation of the test compound. […] After 48 hours, the treated plants are infected with a sporangia suspension of the fungus. Fungus infestation is evaluated after incubation of the infected plants for 4 days at 90-100% relative humidity and +20° C. Fungal infestation is effectively controlled with compounds of Tables 1 to 35. Compounds E1.003, E1.004, E1.009, E1.011, E1.012, E1.019, E1.020, E1.021, E1.022, E1.025, E1.031, E1.032, E1.033, E1.038, E1.045, E1.049, E1.050, E1.053, E1.085, E1.089, E1.090, E1.091, E1.102, E1.110, E1.112, E1.121, E1.125, E1.129 at 200 ppm inhibit fungal infestations in both tests D-3a) and D-3b) by 80-100%.

Series [4] relates to Phytophthora. The experiment in a line: D-2b) systemic action against Phytophthora on tomato plants. The following applies: Phytophthora, 96 h; 200 ppm; test D-2b) systemic (soil watering), evaluated after 4 days, read-out: inhibit fungal infestations. The format is in vivo. As to the method: as §3
After a cultivation period of 3 weeks, tomato plants are watered with a spray mixture (0.02% active ingredient based on the volume of the soil) prepared from a wettable powder formulation of the test compound. […] After 96 hours, the treated plants are infected with a sporangia suspension of the fungus. Fungus infestation is evaluated after incubation of the infected plants for 4 days at 90-100% relative humidity and +20° C. […] Compounds E1.003, E1.004, E1.009, E1.011, E1.012, E1.014, E1.018, E1.019, E1.020, E1.021, E1.022, E1.023, E1.025, E1.031, E1.032, E1.033, E1.038, E1.040, E1.044, E1.045, E1.049, E1.050, E1.053, E1.055, E1.057, E1.064, E1.085, E1.089, E1.090, E1.091, E1.102, E1.08, E1.110, E1.112, E1.121, E1.125, E1.129, E1.139 and E1.141 at 200 ppm inhibit fungal infestations in both tests D-2a) and D-2b) by 80-100%.

The subject of series [5] is Phytophthora. Description: D-3a) residual-protective action against Phytophthora on potato plants. The format is in vivo. The following applies: Phytophthora, 96 h; 200 ppm; test D-3a) residual-protective; potato plants (Bintje); evaluated after 4 days; read-out: inhibit fungal infestations. The protocol: as §4, §2
2-3 week old potato plants (Bintje variety) are sprayed with a spray mixture (0.02% active ingredient) prepared from a wettable powder formulation of the test compound. After 48 hours, the treated plants are infected with a sporangia suspension of the fungus. Fungus infestation is evaluated after incubation of the infected plants for 4 days at 90-100% relative humidity and +20° C.

Series [6] has as its system Plasmopara viticola. The experiment in a line: D-1b) residual-curative action against Plasmopara viticola on vines. It counts as in vivo. Particulars: Plasmopara viticola, 144 h; 200 ppm; test D-1b) residual-curative; vine seedlings; evaluated 6 days after infection; read-out: inhibit fungal infestations. The protocol: as §1
b) Residual-curative Action
Vine seedlings are infected at the 4- to 5-leaf stage with a sporangia suspension of the fungus. After incubation for 24 hours in a humidity chamber at 95-100% relative humidity and +20° C., the infected plants are dried and sprayed with a spray mixture (0.02% active ingredient) prepared from a wettable powder formulation of the test compound. After the spray coating has dried, the treated plants are placed in the humidity chamber again.
Fungus infestation is evaluated 6 days after infection.

Usually melting point stands for the temperature of the solid-liquid transition. `C#CCOc1ccc(CCNC(=O)C(OCC#C)c2ccc(Br)cc2)cc1OC` (stereo not drawn) [Compound E1.022, 2-(4-bromo-phenyl)-N-[2-(3-methoxy-4-prop-2-ynyloxy-phenyl)-ethyl]-2-prop-2-ynyloxy-acetamide] yielded a melting point of 92 to 94 °C. For the same compound, the inhibition at 200 ppm in the series on Plasmopara viticola [1] fell in the range of 80 to 100%. Also, the inhibition at 200 ppm with Phytophthora [2] is 80 to 100%. Moreover, in the series on Phytophthora [3], the inhibition at 200 ppm fell in the range of 80 to 100%. Also, the inhibition at 200 ppm in the series on Phytophthora [4] was in the range of 80 to 100%. Besides, the inhibition at 200 ppm in the series with Phytophthora [5] was in the range of 80 to 100%. In addition, the inhibition at 200 ppm with Plasmopara viticola [6] was 80 to 100%.
Compound `C#CCOc1ccc(CCNC(=O)C(Cl)c2ccc(Br)cc2)cc1OC` (stereo not drawn) showed a melting point of 100 to 102 °C.
For `C#CCOC(C(=O)NCCc1ccc(OCC#CCC)c(OC)c1)c1ccc(Cl)cc1` (stereo not drawn) [Compound E1.012, 2-(4-chloro-phenyl)-N-[2-(3-methoxy-4-pent-2-ynyloxy-phenyl)-ethyl]-2-prop-2-ynyloxy-acetamide], the inhibition at 200 ppm in the series on Plasmopara viticola [1], with Phytophthora [2], in the series with Phytophthora [3], with Phytophthora [4], in the series on Phytophthora [5] and in the series with Plasmopara viticola [6] was 80 to 100% in each case.
Regarding `C#CCOc1ccc(CCNC(=O)C(OCC=C)c2ccc(Br)cc2)cc1OC` (stereo not drawn) [Compound E1.021, 2-allyloxy-2-(4-bromo-phenyl)-N-[2-(3-methoxy-4-prop-2-ynyloxy-phenyl)-ethyl]-acetamide], the inhibition at 200 ppm in the series with Plasmopara viticola [1], in the series on Phytophthora [2], in the series on Phytophthora [3], in the series with Phytophthora [4], with Phytophthora [5] and in the series on Plasmopara viticola [6] was 80 to 100% each time.
As to `C#CCOc1ccc(CCNC(=O)C(OCC#C)c2ccc(Cl)cc2)cc1OC` (stereo not drawn) [Compound E1.011, 2-(4-chloro-phenyl)-N-[2-(3-methoxy-4-prop-2-ynyloxy-phenyl)-ethyl]-2-prop-2-ynyloxy-acetamide], the inhibition at 200 ppm with Plasmopara viticola [1], in the series with Phytophthora [2], with Phytophthora [3], with Phytophthora [4], in the series with Phytophthora [5] and in the series with Plasmopara viticola [6] was 80 to 100% throughout.
For the compound `C#CCOc1ccc(CCNC(=O)C(OCC#C)c2ccc(CC)cc2)cc1OC` (stereo not drawn) [Compound E1.053, 2-(4-ethyl-phenyl)-N-[2-(3-methoxy-4-prop-2-ynyloxy-phenyl)-ethyl]-2-prop-2-ynyloxy-acetamide], the inhibition at 200 ppm with Plasmopara viticola [1], in the series with Phytophthora [2], in the series with Phytophthora [3], in the series on Phytophthora [4], with Phytophthora [5] and with Plasmopara viticola [6] was 80 to 100% each time.
Turning to `C#CCOc1ccc(CCNC(=O)C(OCC)c2ccc(Br)cc2)cc1OC` (stereo not drawn) [Compound E1.020, 2-(4-bromo-phenyl)-2-ethoxy-N-[2-(3-methoxy-4-prop-2-ynyloxy-phenyl)-ethyl]-acetamide], the inhibition at 200 ppm with Plasmopara viticola [1], in the series on Phytophthora [2], in the series with Phytophthora [3], in the series with Phytophthora [4], in the series on Phytophthora [5] and in the series on Plasmopara viticola [6] was 80 to 100% throughout.
On to `C#CCOc1ccc(CCNC(=O)C(OCC#C)c2ccc(C)cc2)cc1OC` (stereo not drawn) [Compound E1.045, 2-(4-tolyl)-N-[2-(3-methoxy-4-prop-2-ynyloxy-phenyl)-ethyl]-2-prop-2-ynyloxy-acetamide], for which the melting point lay within 81 to 82 °C. Besides, the inhibition at 200 ppm with Plasmopara viticola [1] lay in the range of 80 to 100%. In addition, in the series on Phytophthora [2], the inhibition at 200 ppm is 80 to 100%. The inhibition at 200 ppm in the series with Phytophthora [3] was 80 to 100%. In addition, the inhibition at 200 ppm in the series with Phytophthora [4] was 80 to 100%. Further, the inhibition at 200 ppm in the series with Phytophthora [5] lay within 80 to 100%. In addition, the inhibition at 200 ppm with Plasmopara viticola [6] is 80 to 100%.
